Where two headings read alike, the source gives them in different places.

This data set relates to DU145 human prostate cancer cells. The data set can be described thus: MTS viability assay in DU145 human prostate cancer cells. Particulars: for cell viability (cytotoxicity), initial screening: 30 μM compound, DU145 cells (FIG. 8); for IC50: read-out: IC50 (cell viability). (In general: Tetrazolium assays rely on reduction of a dye to a coloured formazan, in cell work by metabolically active cells.)

Setting [1] is: 0.1 to 20 μM, 48 h, MTS, DU145 cells (FIGS. 9-12).

Method: An MTS assay is a colorimetric experimental method to determine the number of viable cells in cytotoxicity assays and utilizes 3-(4,5-dimethylthiazol-2-yl)-5-(3-carboxymethoxyphenyl)-2-(4-sulfophenyl)-2H-tetrazolium, inner salt (MTS).
The experimental setup was as follows: DU145 human prostate cancer cells were obtained from ATCC and cultured in RPMI-1640 medium containing 10% fetal bovine serum (FBS), 100 units/ml of penicillin, and 100 μg/ml streptomycin. All cells were maintained in a 5% CO2 atmosphere at 37° C. To determine the viability of the cells, MTS assays were performed as described by the supplier (Promega; Madison, Wis.). Briefly, cells (5,000/well) were seeded in 96-well plates and incubated overnight at 37° C. in 5% CO2. Cells were treated for 48 h with 30 μM of each compound for initial screenings.
MTS dye was added to each well for 1 h. Cell viability was determined by tetrazolium conversion to its formazan dye and absorbance of formazan was measured at 490 nm. Values are the mean ±SD. Each experiment was performed in quadruplicate.
Dimethyl sulfoxide (DMSO) was used as the vehicle control. MTS dye was added to each 96-well plate well for one hour. Cell viability was determined by tetrazolium conversion to its formazan dye and absorbance of formazan was measured at 490 nm using an automated ELISA plate reader. The production of formazan dye was directly proportional to the number of living cells.
DU145 cells (5,000 cells/each well) were treated in dose-dependent manner for 48 h. Then, MTS assay was performed with four samples for each experiment.

For grossularine-1 [Compound 1], the “cell viability (cytotoxicity), initial screening” value (48 h, MTS) is on record as “complete loss of cell viability”. Under setting [1], the IC50 (in general, the point on the concentration scale where inhibition reaches its midpoint) came out at 10.3 µM.

Take `CN(C)c1nc2c([nH]1)c(C(=N)c1c[nH]c3ccccc13)nc1[nH]c3ccccc3c12` [Compound 8]: the IC50 (Homo sapiens, DU-145, 48 h) worked out at 1.8 µM.

In the case of “N,N-didesmethylgrossularine-1 [Compound 2]”, under “48 h, MTS”, the “cell viability (cytotoxicity), initial screening” value is “complete loss of cell viability”. The IC50 under setting [1] amounted to 7.3 µM.

Values taken from patent publication US7615638B2, “Synthesis of grossularines-1 and analogs thereof and method of use” (City of Hope, priority 2006, dated 2009).
